The target of data set [1] is T1, hTRPA1 (Homo sapiens, UniProt O75762, K186N).
T1 construct: expressed in transfected cells; host or cells: HEK293/TREx (Invitrogen), induced with tetracycline
Description: TRPA1 patch clamp (perforated patch, AITC-activated current). In kind it is cell-based. In outline:
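HEK293 TREx cells expressing the channel were recorded by amphotericin perforated patch at −40 mV holding, with 400 ms ramps from −120 to +100 mV every 5 s. Current was activated with 5 μM AITC in pH 7.4 external solution, and block of inward and outward current was measured at −80 and +80 mV with AITC still present.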

Data set [2] concerns the target T1, hTRPA1. Put plainly: High throughput Ca2+ fluorescence (Fluo4) assay, AITC stimulation. The data set is classed as cell-based. In a few lines:
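Tetracycline-induced HEK293/TREx cells loaded with 1 μM Fluo4/AM for 60 min at room temperature. Compound added for 2 min after a 4-frame baseline, then AITC; fluorescence followed ~3 min.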

For the next data set, the target named is hNaV1.2 (Homo sapiens, UniProt Q99250). Put plainly: hNaV1.2 patch clamp (Qpatch) selectivity. The data set is classed as cell-based.
Chain of hNaV1.2 (Q99250 whole entry): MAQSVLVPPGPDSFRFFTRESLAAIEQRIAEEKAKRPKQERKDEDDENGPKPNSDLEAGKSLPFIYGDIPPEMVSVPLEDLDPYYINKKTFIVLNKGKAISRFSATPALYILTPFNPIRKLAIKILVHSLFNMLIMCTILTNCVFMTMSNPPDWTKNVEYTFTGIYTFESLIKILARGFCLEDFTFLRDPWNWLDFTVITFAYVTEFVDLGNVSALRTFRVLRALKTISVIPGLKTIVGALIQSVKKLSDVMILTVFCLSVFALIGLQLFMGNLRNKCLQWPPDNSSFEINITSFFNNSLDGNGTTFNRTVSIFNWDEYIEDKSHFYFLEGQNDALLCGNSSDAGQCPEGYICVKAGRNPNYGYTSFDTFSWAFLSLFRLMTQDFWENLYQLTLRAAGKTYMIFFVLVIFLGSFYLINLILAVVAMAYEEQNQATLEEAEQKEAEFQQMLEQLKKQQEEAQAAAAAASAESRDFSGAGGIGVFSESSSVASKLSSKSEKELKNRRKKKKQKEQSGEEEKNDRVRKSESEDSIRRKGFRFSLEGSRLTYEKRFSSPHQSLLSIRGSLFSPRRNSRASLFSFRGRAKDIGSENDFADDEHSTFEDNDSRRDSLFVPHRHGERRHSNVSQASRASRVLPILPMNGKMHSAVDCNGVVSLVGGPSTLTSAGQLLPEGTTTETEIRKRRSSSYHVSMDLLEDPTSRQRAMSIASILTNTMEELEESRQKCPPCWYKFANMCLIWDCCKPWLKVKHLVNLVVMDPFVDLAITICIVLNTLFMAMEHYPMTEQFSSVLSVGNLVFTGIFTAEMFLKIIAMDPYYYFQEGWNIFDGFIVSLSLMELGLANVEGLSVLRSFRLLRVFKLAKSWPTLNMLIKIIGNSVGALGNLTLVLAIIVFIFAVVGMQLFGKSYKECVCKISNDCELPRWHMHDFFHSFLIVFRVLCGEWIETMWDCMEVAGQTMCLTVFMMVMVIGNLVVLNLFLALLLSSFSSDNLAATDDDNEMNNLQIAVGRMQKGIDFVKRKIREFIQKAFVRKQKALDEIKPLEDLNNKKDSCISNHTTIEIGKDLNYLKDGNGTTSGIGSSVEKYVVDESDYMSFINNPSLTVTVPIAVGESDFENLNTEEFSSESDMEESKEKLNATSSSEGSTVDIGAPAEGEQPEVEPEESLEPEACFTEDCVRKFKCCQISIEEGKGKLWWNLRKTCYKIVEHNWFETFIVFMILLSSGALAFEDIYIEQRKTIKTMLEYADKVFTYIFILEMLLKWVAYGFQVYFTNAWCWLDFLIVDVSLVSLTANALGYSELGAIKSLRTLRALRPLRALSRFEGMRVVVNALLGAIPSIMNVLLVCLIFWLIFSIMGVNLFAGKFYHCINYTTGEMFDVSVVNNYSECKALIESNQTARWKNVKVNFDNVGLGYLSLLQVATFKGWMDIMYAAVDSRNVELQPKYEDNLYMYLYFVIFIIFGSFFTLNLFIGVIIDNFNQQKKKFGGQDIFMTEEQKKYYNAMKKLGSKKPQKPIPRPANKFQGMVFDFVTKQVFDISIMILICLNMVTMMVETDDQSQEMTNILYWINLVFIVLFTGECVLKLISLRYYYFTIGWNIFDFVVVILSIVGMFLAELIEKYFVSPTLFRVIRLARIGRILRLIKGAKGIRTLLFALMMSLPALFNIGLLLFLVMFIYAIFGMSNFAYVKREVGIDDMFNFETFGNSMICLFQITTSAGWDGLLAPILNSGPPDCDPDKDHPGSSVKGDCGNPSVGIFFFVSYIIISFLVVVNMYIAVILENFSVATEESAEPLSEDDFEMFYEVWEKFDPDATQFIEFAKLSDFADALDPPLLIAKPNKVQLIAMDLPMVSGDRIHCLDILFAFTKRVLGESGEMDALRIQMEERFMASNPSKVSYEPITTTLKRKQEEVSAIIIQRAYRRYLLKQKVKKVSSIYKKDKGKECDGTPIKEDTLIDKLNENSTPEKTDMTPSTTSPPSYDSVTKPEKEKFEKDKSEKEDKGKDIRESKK
The next data set deals with hERG (Homo sapiens, UniProt Q12809). Put plainly: hERG patch clamp (Qpatch) selectivity. The conditions noted are these: for selectivity ratio: human, selective for TRPA1 over hERG. (hERG is a cardiac potassium channel; its block is linked to QT prolongation.)
Chain of hERG (Q12809 whole entry): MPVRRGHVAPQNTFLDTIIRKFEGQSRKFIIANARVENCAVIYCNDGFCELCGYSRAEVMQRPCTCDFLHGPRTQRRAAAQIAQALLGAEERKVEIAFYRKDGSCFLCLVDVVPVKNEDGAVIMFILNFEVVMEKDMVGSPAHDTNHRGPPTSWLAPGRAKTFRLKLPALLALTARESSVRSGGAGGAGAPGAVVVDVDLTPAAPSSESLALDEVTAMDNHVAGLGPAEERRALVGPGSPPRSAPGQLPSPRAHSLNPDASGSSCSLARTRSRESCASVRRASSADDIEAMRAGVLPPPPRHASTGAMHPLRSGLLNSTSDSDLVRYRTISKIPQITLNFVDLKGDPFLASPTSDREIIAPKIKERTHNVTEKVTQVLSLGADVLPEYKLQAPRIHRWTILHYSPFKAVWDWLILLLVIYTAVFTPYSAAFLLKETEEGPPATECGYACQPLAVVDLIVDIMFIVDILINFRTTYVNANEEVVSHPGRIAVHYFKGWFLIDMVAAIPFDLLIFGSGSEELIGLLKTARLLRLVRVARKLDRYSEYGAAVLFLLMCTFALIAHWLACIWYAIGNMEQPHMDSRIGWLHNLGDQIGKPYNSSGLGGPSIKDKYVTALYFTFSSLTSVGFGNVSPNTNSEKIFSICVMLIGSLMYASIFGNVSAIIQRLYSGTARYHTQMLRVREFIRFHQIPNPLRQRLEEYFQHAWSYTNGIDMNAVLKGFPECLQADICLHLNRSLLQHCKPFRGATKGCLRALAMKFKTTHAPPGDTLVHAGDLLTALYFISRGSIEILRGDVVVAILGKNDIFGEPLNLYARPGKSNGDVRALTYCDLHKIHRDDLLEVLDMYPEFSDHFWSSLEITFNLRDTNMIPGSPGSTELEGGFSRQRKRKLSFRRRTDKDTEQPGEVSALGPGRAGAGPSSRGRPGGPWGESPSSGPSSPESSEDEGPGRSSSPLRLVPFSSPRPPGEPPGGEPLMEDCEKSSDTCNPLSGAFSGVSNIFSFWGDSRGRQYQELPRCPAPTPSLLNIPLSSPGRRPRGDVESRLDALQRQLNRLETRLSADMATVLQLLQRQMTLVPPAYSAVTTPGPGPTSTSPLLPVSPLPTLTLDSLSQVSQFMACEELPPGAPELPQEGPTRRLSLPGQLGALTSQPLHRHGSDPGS
A further data set has as its target T2, hTRPV3 (Homo sapiens, UniProt Q8NET8).
T2 sequence (Q8NET8 1-790): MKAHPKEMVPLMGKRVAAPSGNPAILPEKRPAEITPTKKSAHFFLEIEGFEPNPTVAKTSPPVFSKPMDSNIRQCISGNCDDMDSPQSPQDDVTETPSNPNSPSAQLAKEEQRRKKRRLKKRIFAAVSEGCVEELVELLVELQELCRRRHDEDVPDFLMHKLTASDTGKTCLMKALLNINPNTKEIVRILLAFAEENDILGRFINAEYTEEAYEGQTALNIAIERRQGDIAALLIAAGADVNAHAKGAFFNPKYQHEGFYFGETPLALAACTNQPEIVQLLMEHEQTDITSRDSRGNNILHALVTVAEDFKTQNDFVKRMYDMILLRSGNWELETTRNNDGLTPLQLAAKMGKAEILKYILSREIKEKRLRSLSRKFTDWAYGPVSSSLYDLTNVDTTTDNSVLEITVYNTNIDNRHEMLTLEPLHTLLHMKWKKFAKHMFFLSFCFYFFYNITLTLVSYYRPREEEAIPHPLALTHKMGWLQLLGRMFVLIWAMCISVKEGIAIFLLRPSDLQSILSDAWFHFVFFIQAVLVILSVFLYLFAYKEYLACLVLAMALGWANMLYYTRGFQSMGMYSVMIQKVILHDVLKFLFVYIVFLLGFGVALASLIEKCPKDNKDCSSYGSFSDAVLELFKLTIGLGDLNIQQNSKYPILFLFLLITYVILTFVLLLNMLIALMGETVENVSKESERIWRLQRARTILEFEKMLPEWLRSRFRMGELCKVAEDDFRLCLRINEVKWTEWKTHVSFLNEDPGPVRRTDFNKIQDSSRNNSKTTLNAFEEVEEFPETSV
Put plainly: hTRPV3 patch clamp selectivity. In kind it is cell-based. The settings on record: Table 2.

The next data set concerns the target hTRPV4 (Homo sapiens, UniProt Q9HBA0). Put plainly: hTRPV4 patch clamp selectivity. In kind it is cell-based. The conditions noted are these: Table 2. A general note: In patch-clamp work, channel activity is measured electrically.
Where [3] appears, read: Table 2, inward current, read-out: hTRPA1 Patch Inwd IC50.
Setting [4] is: Table 2, read-out: hTRPA1 Fluor IC50.
[5] abbreviates: Table 2, read-out: hNaV1.2 IC50.
Setting [6] is: Table 1, read-out: hTRPA1 Patch IC50.
Setting [7] is: Table 1, read-out: hTRPA1 Fluo4 IC50.

Molecules are shown by their SMILES. Read-outs that look alike come from different tables or passages of the source.

The source of these data is patent US7671061B2, “Methods and compositions for treating pain” (Hydra Biosciences, Inc., priority 2005, dated 2010).

T1 sequence (O75762 whole entry K186N): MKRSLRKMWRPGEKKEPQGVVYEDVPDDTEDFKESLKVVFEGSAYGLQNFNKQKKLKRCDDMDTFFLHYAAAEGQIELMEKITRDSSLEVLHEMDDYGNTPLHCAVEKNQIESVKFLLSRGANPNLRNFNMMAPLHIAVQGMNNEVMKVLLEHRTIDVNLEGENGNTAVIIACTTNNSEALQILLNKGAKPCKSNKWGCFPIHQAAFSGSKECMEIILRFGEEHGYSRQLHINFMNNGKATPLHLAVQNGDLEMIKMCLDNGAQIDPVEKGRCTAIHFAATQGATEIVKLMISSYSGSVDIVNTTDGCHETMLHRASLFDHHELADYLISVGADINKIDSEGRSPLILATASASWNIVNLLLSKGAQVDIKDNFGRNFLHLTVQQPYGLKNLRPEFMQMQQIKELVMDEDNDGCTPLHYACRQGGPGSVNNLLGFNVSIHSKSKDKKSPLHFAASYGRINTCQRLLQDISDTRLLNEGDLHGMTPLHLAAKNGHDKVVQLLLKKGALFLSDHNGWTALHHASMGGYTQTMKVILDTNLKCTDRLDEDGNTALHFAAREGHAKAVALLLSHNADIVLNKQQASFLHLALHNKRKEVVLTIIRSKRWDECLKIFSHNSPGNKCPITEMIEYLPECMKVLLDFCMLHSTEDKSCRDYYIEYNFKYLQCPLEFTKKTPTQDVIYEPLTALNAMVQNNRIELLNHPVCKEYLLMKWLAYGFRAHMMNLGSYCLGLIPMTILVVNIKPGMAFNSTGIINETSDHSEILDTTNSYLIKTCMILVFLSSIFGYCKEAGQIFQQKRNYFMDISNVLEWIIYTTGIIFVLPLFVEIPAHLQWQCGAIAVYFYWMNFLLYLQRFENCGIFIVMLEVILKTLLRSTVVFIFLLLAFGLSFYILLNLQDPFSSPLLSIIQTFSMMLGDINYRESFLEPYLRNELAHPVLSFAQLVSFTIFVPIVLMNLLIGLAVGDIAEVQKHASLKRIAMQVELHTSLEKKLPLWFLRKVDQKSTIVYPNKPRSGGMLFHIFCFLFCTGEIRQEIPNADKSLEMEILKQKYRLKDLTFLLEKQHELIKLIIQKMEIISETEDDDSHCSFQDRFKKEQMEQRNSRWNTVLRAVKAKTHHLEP
Chain of hTRPV4 (Q9HBA0 whole entry): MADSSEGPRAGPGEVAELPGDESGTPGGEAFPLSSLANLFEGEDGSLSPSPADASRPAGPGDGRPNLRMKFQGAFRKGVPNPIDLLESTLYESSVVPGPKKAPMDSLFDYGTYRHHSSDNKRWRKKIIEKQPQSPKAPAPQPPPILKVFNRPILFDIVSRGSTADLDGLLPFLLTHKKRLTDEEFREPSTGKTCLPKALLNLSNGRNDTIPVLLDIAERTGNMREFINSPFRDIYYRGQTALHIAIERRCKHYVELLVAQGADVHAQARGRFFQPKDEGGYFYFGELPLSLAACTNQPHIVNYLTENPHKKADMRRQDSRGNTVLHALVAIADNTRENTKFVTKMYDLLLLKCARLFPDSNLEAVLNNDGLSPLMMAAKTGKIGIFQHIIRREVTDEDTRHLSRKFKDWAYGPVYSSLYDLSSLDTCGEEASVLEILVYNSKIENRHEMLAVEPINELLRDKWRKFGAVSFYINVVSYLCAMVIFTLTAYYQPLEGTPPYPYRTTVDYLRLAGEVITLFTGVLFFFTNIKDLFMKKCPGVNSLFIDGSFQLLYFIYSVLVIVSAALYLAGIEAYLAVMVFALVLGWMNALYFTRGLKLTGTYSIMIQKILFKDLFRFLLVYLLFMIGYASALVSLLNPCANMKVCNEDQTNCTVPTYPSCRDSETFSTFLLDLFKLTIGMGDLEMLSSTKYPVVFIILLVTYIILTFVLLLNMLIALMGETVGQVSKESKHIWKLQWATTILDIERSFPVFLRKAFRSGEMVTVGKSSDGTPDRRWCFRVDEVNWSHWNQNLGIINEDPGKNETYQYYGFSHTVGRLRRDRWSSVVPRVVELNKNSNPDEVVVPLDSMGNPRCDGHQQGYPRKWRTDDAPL

For the compound `Cn1c(=O)c2c(ncn2CC(=O)Nc2ccc(Br)cc2)n(C)c1=O` [Compound 219], the IC50 – broadly, the point on the concentration scale where inhibition reaches its midpoint – at hTRPA1 [1] (setting [3]) was ≤ 5 µM; at hTRPA1 [2] (setting [4]), ≤ 5 µM; at hNaV1.2 (setting [5]), ≥ 30 µM; against hERG (hERG IC50 (nM), Table 2), ≥ 20000 nM. The “selective for TRPA1 over NaV1.2” value on hNaV1.2 (Table 2) is ≥ 25 fold. On hERG (Table 2), the “selective for TRPA1 over hERG” value is ≥ 15 fold.

Consider `Cn1c(=O)c2c(ncn2CC(=O)Nc2nc3ccccc3s2)n(C)c1=O` [Compound 239], for which the IC50 on hTRPA1 [1] (setting [3]) was ≤ 5 µM; at hTRPA1 [2] (setting [4]) it was ≤ 5 µM; at hTRPV3 (read-out: hTRPV3 P1 inward IC50), ≤ 10 µM. For the same compound, the “selective for TRPA1 over TRPV3” value at hTRPV3 is reported as ≥ 4 fold.

As to `CCOc1ccc(Oc2ccc(NC(=O)Cn3cnc4c3c(=O)n(C)c(=O)n4C)cc2)cc1` [Compound 284], the IC50 at hTRPA1 [1] (setting [3]) is ≤ 0.5 µM; on hTRPA1 [2] (setting [4]), ≤ 5 µM; at hERG (hERG IC50 (nM), Table 2) it was ≤ 5000 nM. The selectivity ratio on hERG (Table 2) was ≥ 10.

`Cn1c(=O)c2c(ncn2CC(=O)Nc2ccc3c(c2)OC2(CCCCC2)O3)n(C)c1=O` [Compound 347]: the IC50 on hTRPA1 [1] (setting [3]) was ≤ 1 µM; on hTRPA1 [2] (setting [4]) it was ≤ 1 µM; against hTRPV4 it was > 10 µM; on hERG (hERG IC50 (nM), Table 2) it was ≥ 20000 nM. Moreover, the “selective for TRPA1 over TRPV4” value at hTRPV4 is on record as ≥ 15 fold. The selectivity ratio at hERG (Table 2) was ≥ 45.

Turning to `CCc1ccc(-c2csc(NC(=O)Cn3cnc4c3c(=O)n(C)c(=O)n4C)n2)cc1` [Compound 271], the IC50 on hTRPA1 [1] (setting [3]) was ≤ 0.5 µM; at hTRPA1 [2] (setting [4]), ≤ 5 µM; against hERG (hERG IC50 (nM), Table 2), ≥ 30000 nM. At hERG (Table 2), the selectivity ratio was ≥ 150.

Consider `CCOC(=O)C1=C(c2ccccc2)NC(=S)NC1c1ccccc1Br` (stereo not drawn), for which the IC50 on hTRPA1 [1] (setting [6]) is ≤ 5 µM; at hTRPA1 [2] (setting [7]), > 10 µM; at hERG (hERG Qpatch IC50 (nM), Table 1), > 10000 nM. For the same compound, the selectivity ratio on hERG (Table 1) is ≥ 5.

Turning to `CCC(C)c1ccc(NC(=O)Cn2cnc3c2c(=O)n(C)c(=O)n3C)cc1` (stereo not drawn) [Compound 215], the IC50 is ≤ 1 µM at hTRPA1 [1] (setting [3]); ≤ 5 µM on hTRPA1 [2] (setting [4]); ≥ 30 µM at hNaV1.2 (setting [5]); ≥ 10000 nM against hERG (hERG IC50 (nM), Table 2). Besides, the “selective for TRPA1 over NaV1.2” value at hNaV1.2 (Table 2) is recorded as ≥ 55 fold. For the same compound, at hERG (Table 2), the selectivity ratio was ≥ 25.

As to `Cn1c(=O)c2c(ncn2CC(=O)Nc2cccc(C(F)(F)F)c2)n(C)c1=O` [Compound 226], the IC50 at hTRPA1 [1] (setting [3]) was ≤ 10 µM; on hTRPA1 [2] (setting [4]) it was ≤ 5 µM; at hNaV1.2 (setting [5]), ≥ 30 µM; at hERG (hERG IC50 (nM), Table 2), > 10000 nM. The “selective for TRPA1 over NaV1.2” value at hNaV1.2 (Table 2) is ≥ 5 fold. Further, the selectivity ratio on hERG (Table 2) is ≥ 2.

Turning to `Cn1c(=O)c2c(ncn2CC(=O)Nc2nc(-c3ccc(Br)cc3)cs2)n(C)c1=O` [Compound 232], the IC50 was ≤ 0.5 µM at hTRPA1 [1] (setting [3]); ≤ 1 µM at hTRPA1 [2] (setting [4]); ≥ 30 µM on hNaV1.2 (setting [5]); ≥ 30000 nM against hERG (hERG IC50 (nM), Table 2). Moreover, on hNaV1.2 (Table 2), the “selective for TRPA1 over NaV1.2” value is ≥ 75 fold. Further, on hERG (Table 2), the selectivity ratio is ≥ 75.

Take `Cn1c(=O)c2c(ncn2CC(=O)Nc2nc(-c3ccccc3)cs2)n(C)c1=O` [Compound 230]: the IC50 on hTRPA1 [1] (setting [3]) and on hTRPA1 [2] (setting [4]) was ≤ 10 µM each time.

For the compound `Cn1c(=O)c2c(ncn2CC(=O)Nc2ccc(-c3ccccc3)cc2)n(C)c1=O` [Compound 294], the values for the IC50 at hTRPA1 [1] (setting [3]) and at hTRPA1 [2] (setting [4]) were ≤ 1 µM and ≤ 5 µM, respectively.

With `Cn1c(=O)c2c(ncn2CC(=O)Nc2ccc(C(N)=O)cc2)n(C)c1=O` [Compound 212], the IC50 at hTRPA1 [1] (setting [3]) and on hTRPA1 [2] (setting [4]) was > 10 µM each time.

As to `CC1=C(C(=O)OC(C)C)C(c2ccc(C)c(Br)c2)NC(=O)N1` (stereo not drawn), the values for the IC50 at hTRPA1 [1] (setting [6]) and on hTRPA1 [2] (setting [7]) were ≤ 0.5 µM and ≤ 5 µM, respectively.

On to `CCOC(=O)C1=C(c2ccccc2)NC(=S)NC1c1ccccc1Cl` (stereo not drawn), for which the IC50 was ≤ 5 µM at hTRPA1 [1] (setting [6]); > 10 µM on hTRPA1 [2] (setting [7]); ≥ 20000 nM against hERG (hERG Qpatch IC50 (nM), Table 1). Moreover, at hERG (Table 1), the selectivity ratio was ≥ 10.

As to `Cn1c(=O)c2c(ncn2CC(=O)Nc2cccc(I)c2)n(C)c1=O` [Compound 295], the IC50 is ≤ 1 µM on hTRPA1 [1] (setting [3]) and ≤ 5 µM at hTRPA1 [2] (setting [4]).

`CCCc1ccc(-c2csc(NC(=O)Cn3cnc4c3c(=O)n(C)c(=O)n4C)n2)cc1` [Compound 274]: the figures for the IC50 on hTRPA1 [1] (setting [3]) and at hTRPA1 [2] (setting [4]) were ≤ 1 µM and ≤ 5 µM, respectively.

Take `COC(=O)C1=C(C)N(C)C(=O)NC1c1cccc(Br)c1` (stereo not drawn): the IC50 is > 10 µM at hTRPA1 [1] (setting [6]) and ≤ 5 µM at hTRPA1 [2] (setting [7]).

As to `COC(=O)C1=C(C)NC(=S)NC1c1ccccc1` (stereo not drawn), the IC50 at hTRPA1 [1] (setting [6]) is > 10 µM; on hTRPA1 [2] (setting [7]) it was ≤ 5 µM.

Take `Cn1c(=O)c2c(ncn2CC(=O)Nc2c(Cl)cccc2Cl)n(C)c1=O` [Compound 305]: the IC50 on hTRPA1 [1] (setting [3]) was ≤ 10 µM; on hTRPA1 [2] (setting [4]), > 10 µM.

Consider `Cn1c(=O)c2c(ncn2CC(=O)Nc2ccc(Cl)c(Cl)c2)n(C)c1=O` [Compound 217], for which the IC50 was ≤ 1 µM on hTRPA1 [1] (setting [3]); ≤ 10 µM at hTRPA1 [2] (setting [4]); ≥ 30 µM at hNaV1.2 (setting [5]); ≥ 20000 nM against hERG (hERG IC50 (nM), Table 2). In addition, the “selective for TRPA1 over NaV1.2” value on hNaV1.2 (Table 2) is ≥ 50 fold. For the same compound, the selectivity ratio at hERG (Table 2) is ≥ 45.

`CCOC(=O)C1=C(c2ccccc2)NC(=S)NC1c1cc(O)ccc1Br` (stereo not drawn) [drawing 49]: the IC50 is ≤ 1 µM at hTRPA1 [1] (setting [6]); ≤ 1 µM on hTRPA1 [2] (setting [7]); ≥ 30 µM at hNaV1.2 (Table 1, read-out: hNaV1.2 Qpatch IC50); ≥ 20000 nM at hERG (hERG Qpatch IC50 (nM), Table 1). Also, on hNaV1.2 (Table 1), the “selective for TRPA1 over NaV1.2” value is ≥ 40 fold. Also, on hERG (Table 1), the selectivity ratio was ≥ 30.

Regarding `Cn1c(=O)c2c(ncn2CC(=O)Nc2ccc(Cl)cc2)n(C)c1=O` [Compound 251], the IC50 on hTRPA1 [1] (setting [3]) was ≤ 1 µM; on hTRPA1 [2] (setting [4]) it was ≤ 5 µM.

Consider `Cn1c(=O)c2c(ncn2CC(=O)Nc2ccc(Br)cc2)n(C)c1=O` [Compound 202], for which the IC50 on hTRPA1 [1] (setting [3]) is ≤ 5 µM; at hTRPA1 [2] (setting [4]), ≤ 5 µM; against hERG (hERG IC50 (nM), Table 2), > 10000 nM. Further, the “selective for TRPA1 over hERG” value on hERG (Table 2) is ≥ 5 fold.

Turning to `CCOC(=O)C1=C(C)NC(=S)NC1c1cccc(OCC)c1` (stereo not drawn), the values for the IC50 at hTRPA1 [1] (setting [6]) and at hTRPA1 [2] (setting [7]) were ≤ 1 µM and ≤ 5 µM, respectively.

Consider `CC(C(=O)Nc1ccc(Br)cc1)n1cnc2c1c(=O)n(C)c(=O)n2C` (stereo not drawn) [Compound 296], for which the IC50 was ≤ 10 µM at hTRPA1 [1] (setting [3]) and ≤ 5 µM at hTRPA1 [2] (setting [4]).
